Test systems include UO-31 renal; SK-MEL-5 melanoma; SW-620 colon; EKVX NSCLC; TK-10 renal; MALME-3M melanoma; MDA-MB-435; SK-MEL-2 melanoma; HS 578T breast; SF-295 CNS; UACC-257 melanoma; CCRF-CEM leukemia; A549 NSCLC; RXF 393 renal; HCT-116 colon; SN12C renal.
What all share (test): NCI-60 cell line screen, 48 h

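These data come from cells grown in 96-well plates and exposed to compound for 48 hours at five concentrations. At the TGI there is no net growth.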

For `O=C1CSC(/C=C/c2ccccc2)N1c1nc2cc3sc(N4C(=O)CSC4/C=C/c4ccccc4)nc3cc2s1` (configuration not stated), the TGI is more than 100 µM in the experiment with UO-31 renal; more than 100 µM in the experiment on SK-MEL-5 melanoma; more than 100 µM in the experiment on SW-620 colon; more than 80.9 µM with EKVX NSCLC; more than 100 µM with TK-10 renal; more than 100 µM with MALME-3M melanoma. The TGI with MDA-MB-435 is more than 100 µM; in the experiment on SK-MEL-2 melanoma it was more than 100 µM; with HS 578T breast, more than 100 µM; in the experiment on SF-295 CNS it was more than 100 µM; with UACC-257 melanoma it was more than 100 µM; in the experiment with CCRF-CEM leukemia, more than 63.5 µM. The TGI in the experiment with A549 NSCLC, in the experiment on RXF 393 renal, in the experiment on HCT-116 colon and with SN12C renal was more than 100 µM in each case.

Regarding `CC[C@H](C)[C@H]1NC(=O)[C@@H](NC(=O)[C@@H](CC(C)C)N(C)C(=O)C2CCCN2C(=O)[C@H](C)O)[C@@H](C)OC(=O)[C@H](Cc2ccc(OC)cc2)N(C)C(=O)[C@@H]2CCCN2C(=O)[C@H](CCCCNC(=O)OCc2ccccc2)NC(=O)[C@H](C)C(=O)[C@H](C(C)C)OC(=O)C[C@@H]1O` (some centres not stated), the TGI with UO-31 renal was more than 25 µM; in the experiment with SK-MEL-5 melanoma it was more than 25 µM; in the experiment with SW-620 colon, more than 25 µM; in the experiment on EKVX NSCLC, more than 25 µM; in the experiment with TK-10 renal it was more than 25 µM; in the experiment with MALME-3M melanoma, 20.1 µM. Moreover, the TGI was more than 25 µM in the experiment with MDA-MB-435; 10.1 µM in the experiment with SK-MEL-2 melanoma; 8.35 µM in the experiment on HS 578T breast; more than 25 µM in the experiment on SF-295 CNS; more than 25 µM in the experiment with UACC-257 melanoma; more than 25 µM in the experiment with CCRF-CEM leukemia. In addition, the TGI is more than 25 µM in the experiment on A549 NSCLC, more than 25 µM in the experiment with RXF 393 renal, 20.2 µM with HCT-116 colon and more than 25 µM in the experiment on SN12C renal.

With `CC(Nc1ncc2c(n1)-c1ccccc1OC2)C(=O)O` (configuration not stated), the TGI with UO-31 renal, in the experiment with SK-MEL-5 melanoma, in the experiment with SW-620 colon, in the experiment on EKVX NSCLC, in the experiment on TK-10 renal and with MALME-3M melanoma was more than 100 µM in each case. The TGI in the experiment on MDA-MB-435, in the experiment with SK-MEL-2 melanoma, in the experiment on HS 578T breast, in the experiment with SF-295 CNS, in the experiment with UACC-257 melanoma and in the experiment with CCRF-CEM leukemia was more than 100 µM throughout. Moreover, the TGI in the experiment on A549 NSCLC, in the experiment with RXF 393 renal, in the experiment with HCT-116 colon and in the experiment on SN12C renal was more than 100 µM in each case.

As for `C=C1C(=O)O[C@H]2C/C(C)=C/CC[C@@]3(C)O[C@](C)(CC[C@@H]3I)[C@@H](I)C[C@@H]12`, the TGI turned out to be 11.8 µM with UO-31 renal; 9.92 µM with SK-MEL-5 melanoma; 12.4 µM in the experiment with SW-620 colon; 14.3 µM in the experiment with EKVX NSCLC; 12.4 µM in the experiment with TK-10 renal; 14.7 µM in the experiment with MALME-3M melanoma. Besides, the TGI in the experiment on MDA-MB-435 came out at 11.7 µM; in the experiment on SK-MEL-2 melanoma, 25.8 µM; with HS 578T breast, 26 µM; in the experiment with SF-295 CNS, 15 µM; in the experiment on UACC-257 melanoma it was 12.7 µM; in the experiment with CCRF-CEM leukemia, 13.3 µM. Also, the TGI came to 18.2 µM in the experiment with A549 NSCLC, 12.7 µM in the experiment on RXF 393 renal, 9.51 µM with HCT-116 colon and 16.4 µM in the experiment with SN12C renal.

Consider `Oc1ccc(O)c(CNc2ccc(C(O)C(F)(F)F)cc2)c1` (configuration not stated), for which the TGI in the experiment on UO-31 renal is 21.9 µM; with SK-MEL-5 melanoma, 76.2 µM; in the experiment on SW-620 colon, more than 100 µM; with EKVX NSCLC, 27.8 µM; in the experiment with TK-10 renal it was 33.1 µM; in the experiment on MALME-3M melanoma, 31 µM. Moreover, the TGI is 47.4 µM with MDA-MB-435; 88 µM with SK-MEL-2 melanoma; more than 100 µM in the experiment on HS 578T breast; 32.5 µM in the experiment on SF-295 CNS; 34.6 µM with UACC-257 melanoma; 33.5 µM in the experiment on CCRF-CEM leukemia. Besides, the TGI was more than 100 µM in the experiment with A549 NSCLC, 26.7 µM in the experiment on RXF 393 renal, 32.2 µM in the experiment with HCT-116 colon and 47.5 µM in the experiment on SN12C renal.

Consider `c1ccc2c(Cc3[nH]c4ccccc4c3Cc3c[nH]c4ccccc34)c[nH]c2c1`, for which the TGI with UO-31 renal worked out at 11.1 µM; in the experiment on SK-MEL-5 melanoma it was 6.05 µM; in the experiment on SW-620 colon it was 5.59 µM; in the experiment with EKVX NSCLC, 11.4 µM; in the experiment on TK-10 renal, 8.1 µM; with MALME-3M melanoma it was 6.3 µM. In addition, the TGI in the experiment with MDA-MB-435 came to 5.16 µM; in the experiment on SK-MEL-2 melanoma it was 7.71 µM; with HS 578T breast, 5.54 µM; with SF-295 CNS it was 16.3 µM; with UACC-257 melanoma, 8.47 µM; in the experiment on CCRF-CEM leukemia it was 8.98 µM. The TGI with A549 NSCLC is 21.6 µM; in the experiment on RXF 393 renal, 5.8 µM; in the experiment on HCT-116 colon, 3.47 µM; in the experiment on SN12C renal, 4.2 µM.

Regarding `CNNC1=NS(=O)(=O)c2cc(C#N)c(Cl)cc2S1`, the TGI is 3.38 µM in the experiment on UO-31 renal; more than 10 µM with SK-MEL-5 melanoma; more than 10 µM in the experiment on SW-620 colon; more than 10 µM in the experiment with EKVX NSCLC; more than 10 µM in the experiment on TK-10 renal; more than 10 µM with MALME-3M melanoma. The TGI with MDA-MB-435, with SK-MEL-2 melanoma, in the experiment with HS 578T breast, with SF-295 CNS, in the experiment with UACC-257 melanoma and in the experiment on CCRF-CEM leukemia was more than 10 µM each time. Also, the TGI in the experiment with A549 NSCLC, in the experiment with RXF 393 renal, in the experiment with HCT-116 colon and with SN12C renal was more than 10 µM each time.
